In US20110230476A1, “PI3 KINASE INHIBITORS AND USES THEREOF” (AVILA THERAPEUTICS, INC., priority 2009, published 2011) one finds IC50 and EC50 data, which are given here for 16 compounds.

Test [1] has as its target T1, PI3Kα (p110α/p85α) (Homo sapiens, UniProt P42336).
T1 construct: purchased BPS Bioscience (San Diego, Calif.) or Millipore (Billerica, Mass.)
Briefly: HTRF assay, potency against active PI3Kα. The class given is biochemical. Particulars: HTRF; [ATP]=50 μM, [di-C8-PIP2]=10 μM; 30 min pre-incubation; read-out: PI3Kα Inhibition. In outline:
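IC50 came from a variable-slope fit of % inhibition, calculated from the HTRF emission ratio relative to wells with and without enzyme. Reactions with the active enzyme complex ran 30-60 minutes at 25 °C after ATP addition before stop and detection reagents.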
A general note: TR-FRET usually uses a lanthanide donor and a delayed reading to cut background.

For test [2], the system named is Phospho-Akt(Ser473). Briefly: Dose response in SKOV3 cells as determined by Western blot. The class given is cell-based. Particulars: Homo sapiens, SK-OV-3, 1 hr, Phospho-Akt normalized to total Akt, read-out: Immunoblot. As to the method:
Dose Response in SKOV3 Cells as Determined by Western Blot
SKOV3 cells were plated in SKOV3 Growth Media (DMEM supplemented with 10% FBS and pen/strep) at a density of 4×10^5 cells per well of 12 well plates. Twenty four hours later the media was removed and replaced with 1 ml media containing test compound and 0.1% DMSO and cells were returned to the incubator for 1 hr. At the end of the hour, the media was removed and the cells were washed with PBS, then lysed and scraped into 30 ul of Cell Extraction Buffer (Biosource, Camarillo, Calif.) plus Complete Protease Inhibitor and PhosStop Phosphatase Inhibitor (Roche, Indianapolis, Ind.).
Cell debris was spun down at 13,000×g for 1 minute and the supernatant was taken as the cell lysate. Protein concentration of the lysate was determined by BCA Assay (Pierce Biotechnology, Rockford, Ill.) and 50 ug of protein was loaded per well onto a NuPAGE Novex 4-12% Bis-Tris gel (Invitrogen, Carlsbad, Calif.) then transferred to Immobilon PVDF-FL (Millipore, Billerica, Mass.).
The blot was blocked in Odyssey Blocking Buffer (Li-Cor Biosciences, Lincoln, Nebr.) for 1 hr then incubated overnight at 4° C. with mouse anti-Akt (#2920) and rabbit anti-Phospho-Akt(Ser473) (#9271)(Cell Signaling Technology, Boston, Mass.) antibodies, both diluted 1:1000 in PBS/Odyssey Buffer (1:1)+0.1% Tween-20. The blots were washed 3 times 5 minutes in PBS+0.2% Tween-20 then incubated for 1 hr at room temperature with fluorescently labeled secondary antibodies (Li-Cor) diluted 1:10000 in PBS/Odyssey Buffer (1:1)+0.1% Tween-20.
The blots were washed 2 times for 5 minutes in PBS+0.2% Tween-20, once in distilled water, then scanned on an Odyssey machine (Li-Cor). Band intensity was determined using the Odyssey software and Phopho-Akt signal was normalized to total Akt within samples, then expressed as a percentage of the untreated Phospho-Akt signal.
Background: In western blotting, separated proteins are transferred to a membrane and probed.

In test [3] the test system is Phospho-Akt(Ser473). Briefly: Dose response in SKOV3 cells as determined by in-cell Western. The class given is cell-based. The following applies: Homo sapiens, SK-OV-3; SKOV3 cells, 1 hr; read-out: pAKT Inhibition in cell Western. As to the method:
Dose Response in SKOV3 Cells as Determined by in-Cell Western
Twenty four hours later the media was removed and replaced with 100 ul media containing test compound or control compound and cells were returned to the incubator for 1 hr. At the end of the hour, the media was removed and the cells were washed once with PBS, then fixed for 20 minutes at room temperature in 4% formaldehyde in PBS. The formaldehyde was removed and cells were washed 5 times for 5 minutes with 100 ul of Permeabilization Buffer (PBS+0.1% Triton X-100) at room temperature with gentle shaking. The last wash was removed and replaced with 150 ul of Odyssey Blocking Buffer (Li-Cor, Lincoln, Nebr.) and incubated for 90 minutes at room temperature with gentle shaking.
The Blocking Buffer was then replaced with 50 ul of primary antibody mix (rabbit anti-Phospho-Akt(Ser473) at 1:100 (Cell Signaling Technology, Boston, Mass.) and mouse anti-tubulin at 1:5000 (Sigma Aldrich, St. Louis, Mo.) diluted in Odyssey Blocking Buffer) and incubated overnight at room temperature with gentle shaking.
The next morning, the antibody mix was removed and the wells were washed 5 times for 5 minutes with PBS+0.1% Tween-20. The last wash was replaced with 50 ul of secondary antibody mix (goat anti-rabbit-IRDye-680 and goat anti-mouse-IRDye-800 (Li-Cor), both diluted 1:1000 in Odyssey Blocking Buffer+0.2% Tween-20) and incubated for 1 hour at room temperature with gentle shaking. The antibody mix was removed and the wells were washed 5 times for 5 minutes in PBS+0.1% Tween-20, then 1 time with ddH2O.
The plates were scanned on an Odyssey machine (Li-Cor) with a 3 mm focus offset at an intensity of 8 in both channels and the data was analyzed using the Odyssey software.

The target of test [4] is T2, PI3Kγ (p120γ) (Homo sapiens, UniProt P48736).
T2 construct: purchased BPS Bioscience (San Diego, Calif.) or Millipore (Billerica, Mass.)
T2 sequence (P48736 whole entry): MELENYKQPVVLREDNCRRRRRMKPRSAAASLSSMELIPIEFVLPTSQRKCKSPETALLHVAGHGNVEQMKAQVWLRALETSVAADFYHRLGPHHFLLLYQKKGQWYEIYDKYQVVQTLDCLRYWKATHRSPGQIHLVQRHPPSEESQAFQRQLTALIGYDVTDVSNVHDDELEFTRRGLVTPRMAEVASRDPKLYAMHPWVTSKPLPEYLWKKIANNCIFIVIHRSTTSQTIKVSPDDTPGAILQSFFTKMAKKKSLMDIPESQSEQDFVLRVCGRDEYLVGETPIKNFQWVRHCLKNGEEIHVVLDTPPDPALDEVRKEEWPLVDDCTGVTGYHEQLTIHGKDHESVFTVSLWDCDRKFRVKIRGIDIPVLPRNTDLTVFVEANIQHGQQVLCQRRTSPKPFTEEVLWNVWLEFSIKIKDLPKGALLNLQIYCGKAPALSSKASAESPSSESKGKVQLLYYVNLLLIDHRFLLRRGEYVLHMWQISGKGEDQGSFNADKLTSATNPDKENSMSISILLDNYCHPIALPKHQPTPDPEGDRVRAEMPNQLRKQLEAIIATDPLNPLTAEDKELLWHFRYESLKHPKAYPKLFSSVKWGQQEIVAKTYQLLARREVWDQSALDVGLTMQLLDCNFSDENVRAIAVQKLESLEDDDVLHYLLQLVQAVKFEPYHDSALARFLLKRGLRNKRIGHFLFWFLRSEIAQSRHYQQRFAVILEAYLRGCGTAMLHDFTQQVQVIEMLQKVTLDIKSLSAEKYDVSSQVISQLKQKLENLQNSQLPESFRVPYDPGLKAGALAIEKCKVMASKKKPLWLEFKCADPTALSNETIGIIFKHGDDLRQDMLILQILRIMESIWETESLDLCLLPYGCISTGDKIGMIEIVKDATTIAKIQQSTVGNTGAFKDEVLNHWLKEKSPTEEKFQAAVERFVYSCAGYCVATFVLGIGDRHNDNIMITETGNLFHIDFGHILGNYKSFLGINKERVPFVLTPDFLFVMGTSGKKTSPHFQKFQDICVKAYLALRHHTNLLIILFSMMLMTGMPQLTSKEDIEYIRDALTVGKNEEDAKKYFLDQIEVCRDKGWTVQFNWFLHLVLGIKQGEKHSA
Nature of the test: HTRF assay, potency against active PI3Kγ. The format is biochemical. The following applies: [ATP]=50 μM, [di-C8-PIP2]=10 μM, 30 min pre-incubation, read-out: PI3Kγ Inhibition. In outline: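 End-point competition HTRF: enzyme (p110β/p85α 0.75 nM; p120γ 2-2.5 nM) with 10 μM di-C8-PIP2 pre-incubated 30 min at 25° C with compound, then 50 μM ATP added for 30-60 min at 25° C. Stopped, detected after 1 and 18 h; IC50 from variable-slope fit.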

Test [5] has as its system PI3K. Nature of the test: PI3K HCT116 cellular assay (Western blot). Particulars: Homo sapiens, HCT-116, HCT116 colon cancer cells, 1 hour incubation, read-out: PI3K Inhibition. The format is cell-based. The procedure: PI3K HCT116 Cellular Assay
Selected compounds were assayed in HCT116 colon cancer cells. […] Cells were then washed with PBS, lysed and the protein lysates were then recovered and analyzed by Western blot.

A value given as a limit tells only on which side of the number the result lay.

T1 sequence (P42336 whole entry): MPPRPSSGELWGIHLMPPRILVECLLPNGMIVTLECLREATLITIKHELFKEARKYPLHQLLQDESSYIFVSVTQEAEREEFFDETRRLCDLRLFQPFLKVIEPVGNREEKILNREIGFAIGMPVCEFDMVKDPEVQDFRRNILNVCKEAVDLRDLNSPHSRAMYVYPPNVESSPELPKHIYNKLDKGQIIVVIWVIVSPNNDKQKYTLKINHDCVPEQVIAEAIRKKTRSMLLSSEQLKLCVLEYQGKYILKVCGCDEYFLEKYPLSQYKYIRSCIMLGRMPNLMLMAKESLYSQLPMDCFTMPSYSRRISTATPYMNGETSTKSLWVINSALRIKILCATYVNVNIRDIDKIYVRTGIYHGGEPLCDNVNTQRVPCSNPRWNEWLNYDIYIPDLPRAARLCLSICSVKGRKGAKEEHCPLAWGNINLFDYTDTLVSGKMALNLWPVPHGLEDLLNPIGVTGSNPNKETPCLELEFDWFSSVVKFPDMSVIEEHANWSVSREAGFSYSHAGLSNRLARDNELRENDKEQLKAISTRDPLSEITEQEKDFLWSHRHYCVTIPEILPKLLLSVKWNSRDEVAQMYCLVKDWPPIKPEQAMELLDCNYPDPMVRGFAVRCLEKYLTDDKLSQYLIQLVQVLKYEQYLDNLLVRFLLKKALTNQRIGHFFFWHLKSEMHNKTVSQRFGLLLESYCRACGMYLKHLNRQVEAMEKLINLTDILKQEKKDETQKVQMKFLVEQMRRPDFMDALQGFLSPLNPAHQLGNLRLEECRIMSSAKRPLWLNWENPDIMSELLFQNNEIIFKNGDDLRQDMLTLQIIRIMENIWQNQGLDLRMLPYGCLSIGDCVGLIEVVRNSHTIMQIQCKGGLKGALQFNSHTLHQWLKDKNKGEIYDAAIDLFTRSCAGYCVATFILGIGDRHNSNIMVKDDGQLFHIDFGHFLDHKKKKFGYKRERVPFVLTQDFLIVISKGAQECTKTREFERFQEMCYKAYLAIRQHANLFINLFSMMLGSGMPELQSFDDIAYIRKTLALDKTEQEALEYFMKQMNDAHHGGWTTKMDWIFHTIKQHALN
T1 sequence (P27986 whole entry partner): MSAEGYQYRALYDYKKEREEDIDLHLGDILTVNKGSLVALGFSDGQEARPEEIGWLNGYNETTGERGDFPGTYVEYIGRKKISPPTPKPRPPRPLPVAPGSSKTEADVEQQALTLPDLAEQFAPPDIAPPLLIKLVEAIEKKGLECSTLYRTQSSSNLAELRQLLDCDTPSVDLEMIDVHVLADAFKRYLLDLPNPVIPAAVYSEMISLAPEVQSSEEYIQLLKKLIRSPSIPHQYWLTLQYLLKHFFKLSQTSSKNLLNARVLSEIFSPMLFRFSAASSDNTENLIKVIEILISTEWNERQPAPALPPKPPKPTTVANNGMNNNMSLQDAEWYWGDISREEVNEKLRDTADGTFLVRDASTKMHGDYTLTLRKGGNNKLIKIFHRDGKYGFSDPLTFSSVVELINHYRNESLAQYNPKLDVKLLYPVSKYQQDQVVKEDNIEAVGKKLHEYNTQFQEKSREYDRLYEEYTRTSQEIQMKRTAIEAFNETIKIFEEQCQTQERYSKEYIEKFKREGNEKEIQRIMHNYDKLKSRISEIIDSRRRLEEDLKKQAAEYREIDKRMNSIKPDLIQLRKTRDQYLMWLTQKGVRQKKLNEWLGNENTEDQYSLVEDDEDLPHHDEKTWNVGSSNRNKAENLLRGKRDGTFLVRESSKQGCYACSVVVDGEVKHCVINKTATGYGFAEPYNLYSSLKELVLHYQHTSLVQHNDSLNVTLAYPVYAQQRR

As for `C=CC(=O)Nc1ccc(CC(=O)N2CCC(n3ncc4c(N5CCOCC5)nc(-c5cnc(N)nc5)nc43)CC2)cc1` [VII-13, N-(4-(2-(4-(6-(2-aminopyrimidin-5-yl)-4-morpholino-1H-pyrazolo[3,4-d]pyrimidin-1-yl)piperidin-1-yl)-2-oxoethyl)phenyl)acrylamide], the IC50 in test [1] fell in the range of 100 to 1000 nM. Further, the EC50 in test [2] and in test [3] was 10 to 100 nM throughout.

With `C=CC(=O)Nc1ccc(CCNC(=O)c2cc(-c3cnc(N)nc3)nc(N3CCOCC3)c2)cc1` [XII-2, N-(4-acrylamidophenethyl)-2-(2-aminopyrimidin-5-yl)-6-morpholinoisonicotinamide], the IC50 in test [1] lay in the range of 10 to 100 nM. Moreover, in test [2], the EC50 is ≥ 1000 nM.

As for `C/C=C/C(=O)CCC(=O)N1CCC(C#Cc2cc3nc(-c4cccc(O)c4)nc(N4CCOCC4)c3s2)CC1` [II-a-89, (E)-1-(4-((2-(3-hydroxyphenyl)-4-morpholinothieno[3,2-d]pyrimidin-6-yl)ethynyl)piperidin-1-yl)hept-5-ene-1,4-dione], the IC50 in test [1] is < 10 nM. Also, the EC50 in test [2] lay in the range of 10 to 100 nM.

`CC(C)=CC(=O)CCCC(=O)N1CC=C(c2cc3nc(-c4cnc(N)nc4)cc(N4CCOCC4)c3s2)CC1` [II-g-3, 1-(4-(5-(2-aminopyrimidin-5-yl)-7-morpholinothieno[3,2-b]pyridin-2-yl)-5,6-dihydropyridin-1(2H)-yl)-7-methyloct-6-ene-1,5-dione]: the IC50 in test [1] and in test [4] was 100 to 1000 nM throughout. Also, the EC50 in test [2] was 100 to 1000 nM; in test [3], ≤ 10 nM.

`CC(C)=CC(=O)CCCC(=O)N1CCC(c2cc3nc(-c4cnc(N)nc4)cc(N4CCOCC4)c3s2)CC1` [II-g-6, 1-(4-(5-(2-aminopyrimidin-5-yl)-7-morpholinothieno[3,2-b]pyridin-2-yl)piperidin-1-yl)-7-methyloct-6-ene-1,5-dione]: the IC50 in test [1] fell in the range of 100 to 1000 nM. The EC50 in test [2] was 100 to 1000 nM.

With `C=CC(=O)NCc1cccc(-c2cc3nc(-c4cccc(O)c4)nc(N4CCOCC4)c3s2)c1` [II-a-64, N-(3-(2-(3-hydroxyphenyl)-4-morpholinothieno[3,2-d]pyrimidin-6-yl)benzyl)acrylamide], in test [1], the IC50 is < 10 nM. Further, in test [2], the EC50 lay in the range of 10 to 100 nM.

Consider `C=CC(=O)Nc1ccc(OCc2cc3nc(-c4cnc(N)nc4)nc(N4CCOCC4)c3s2)cc1` [II-a-172, N-(4-((2-(2-aminopyrimidin-5-yl)-4-morpholinothieno[3,2-d]pyrimidin-6-yl)methoxy)phenyl)acrylamide], for which the IC50 in test [1] lay within 100 to 1000 nM. Further, the EC50 in test [2] is ≤ 10 nM.

Take `C=CC(=O)Nc1ccc(CN(C)Cc2cc3nc(-c4cnc(N)nc4)nc(N4CCOCC4)c3s2)cc1` [II-a-176, N-(4-((((2-(2-aminopyrimidin-5-yl)-4-morpholinothieno[3,2-d]pyrimidin-6-yl)methyl)(methyl)amino)methyl)phenyl)acrylamide]: the IC50 in test [1] lay in the range of 10 to 100 nM. Further, the EC50 in test [2] fell in the range of 10 to 100 nM.

Turning to `C=CC(=O)Nc1ccc(CCNC(=O)c2cc3nc(-c4cnc(N)nc4)nc(N4CCOCC4)c3s2)cc1` [II-a-154, N-(4-acrylamidophenethyl)-2-(2-aminopyrimidin-5-yl)-4-morpholinothieno[3,2-d]pyrimidine-6-carboxamide], in test [1], the IC50 fell in the range of 10 to 100 nM. For the same compound, the EC50 in test [2] was ≤ 10 nM.

Turning to `C=CC(=O)Nc1ccc(COCc2cc3nc(-c4cnc(N)nc4)nc(N4CCOCC4)c3s2)cc1` [II-a-173, N-(4-(((2-(2-aminopyrimidin-5-yl)-4-morpholinothieno[3,2-d]pyrimidin-6-yl)methoxy)methyl)phenyl)acrylamide], in test [1], the IC50 is 100 to 1000 nM. In addition, the EC50 is ≤ 10 nM in test [2] and 10 to 100 nM in test [3].

Take `C=CC(=O)Nc1ccc(C(=O)N2CC=C(c3cc4nc(-c5cnc(N)nc5)nc(N5CCOCC5)c4s3)CC2)cc1` [II-a-156, N-(4-(4-(2-(2-aminopyrimidin-5-yl)-4-morpholinothieno[3,2-d]pyrimidin-6-yl)-1,2,3,6-tetrahydropyridine-1-carbonyl)phenyl)acrylamide]: the IC50 in test [1] fell in the range of 10 to 100 nM. Also, the EC50 in test [2] was ≤ 10 nM.

Turning to `C=C(C)C(=O)CCCC(=O)N1CCN(Cc2cc3nc(-c4cccc5[nH]ncc45)nc(N4CCOCC4)c3s2)CC1` [II-a-14], the IC50 is 10 to 100 nM in test [1] and > 1000 nM in test [4]. Besides, the EC50 was 10 to 100 nM in test [2] and ≤ 10 nM in test [3].

For `C=CS(=O)(=O)N(C)Cc1cc2nc(-c3cccc(O)c3)nc(N3CCOCC3)c2s1` [II-a-29, N-((2-(3-hydroxyphenyl)-4-morpholinothieno[3,2-d]pyrimidin-6-yl)methyl)-N-methylethenesulfonamide], the IC50 in test [1] lay in the range of 10 to 100 nM; in test [4], 100 to 1000 nM. Moreover, the EC50 in test [5] fell in the range of 100 to 500 nM.

With `O=C(/C=C/c1ccccc1)CCC(=O)N1CCN(C(=O)c2cc3nc(-c4cccc5[nH]ncc45)nc(N4CCOCC4)c3s2)CC1` [II-a-142, (E)-1-(4-(2-(1H-indazol-4-yl)-4-morpholinothieno[3,2-d]pyrimidine-6-carbonyl)piperazin-1-yl)-6-phenylhex-5-ene-1,4-dione], the IC50 in test [1] was < 10 nM. Also, the EC50 in test [2] and in test [3] was 10 to 100 nM throughout.

As for `C/C=C/C(=O)CCCC(=O)N1CCN(Cc2cc3nc(-c4cccc5[nH]ncc45)nc(N4CCOCC4)c3s2)CC1` [II-a-22, (E)-1-(4-((2-(1H-indazol-4-yl)-4-morpholinothieno[3,2-d]pyrimidin-6-yl)methyl)piperazin-1-yl)oct-6-ene-1,5-dione], the values for the IC50 in test [1] and in test [4] were 10 to 100 nM and > 1000 nM, respectively. In test [2], the EC50 was 10 to 100 nM.

Take `C=CC(=O)N1CCN(CC#Cc2cc3nc(-c4cccc(O)c4)nc(N4CCOCC4)c3s2)CC1` [II-a-47, 1-(4-(3-(2-(3-hydroxyphenyl)-4-morpholinothieno[3,2-d]pyrimidin-6-yl)prop-2-ynyl)piperazin-1-yl)prop-2-en-1-one]: the IC50 was 10 to 100 nM in test [1] and > 1000 nM in test [4]. Further, the EC50 in test [5] lay within 100 to 500 nM.
